# Experimental data as given in publication PMC6479983, “Activity of Estafietin and Analogues on Trypanosoma cruzi and Leishmania braziliensis” (Molecules, 2019).
# Entries after “also recorded” stand apart in the source; their conditions may differ.
# Tests used:
# [1] = test system: T. cruzi bloodstream trypomastigotes; experiment: Trypanocidal activity on T. cruzi bloodstream trypomastigotes (counting of living parasites in Neubauer chamber); assay type: cell-based, Trypanosoma cruzi; conditions: for IC50: Trypanosoma cruzi, 24 h incubation, 0-100 µg/mL, living parasites counted, read-out: IC50 against T. cruzi bloodstream trypomastigotes; for Selectivity Index Trypomastigotes T. cruzi: Vero CC50 relative to trypomastigote IC50; for activity against the infective form of T. cruzi compared with estafietin (in words): trypomastigotes, discussion statement
# Description: Figure 2 Trypanocidal activity of estafietin (1) and estafietin derivatives (2–5) against T. cruzi bloodstream trypomastigotes. Bloodstream trypomastigotes were assayed in duplicate in the presence of 0 to 100 µg/mL of estafietin (1), 11βH,13-dihydroestafietin (2), α- (3a) and β-epoxyestafietin (3b) (1:4 mixture), 11βH,13-methoxyestafietin (4) and 11βH,13-cianoestafietin (5). Cultures were done in 96-well plates with 1.5 × 10^6 parasites/mL over 24 h. The living parasites were then counted in a Neubauer chamber. Symbols represent mean ± SEM. Each treatment was compared to controls: parasites incubated with culture medium only. * p < 0.05, ** p < 0.01 and *** p < 0.005. TEXT PRINTED IN THE PICTURE: Estafietin (1): IC50 (μg/mL): 25.2 | 11βH,13-dihydroestafietin (2): IC50 (μg/mL): 97.1 | α and β epoxyestafietin (3a and 3b): IC50 (μg/mL): 18.7 | 11βH,13-methoxyestafietin (4): IC50 (μg/mL): >100 | 1βH,13-cianoestafietin (5): IC50 (μg/mL): 78.1
# The trypanocidal effect of the purified compounds was tested on transfected bloodstream trypomastigotes (Tulhauen strain). Briefly, mouse blood containing trypomastigotes was diluted in complete LIT medium to adjust the parasite concentration to 2 × 10^6/mL. Parasites were seeded in duplicate in a 96-well microplate in the presence of each compound (0–100 µg/mL) and controls and incubated at 4 °C for 24 h. The number of remaining living parasites in each sample was determined in 5 µL of cell suspension diluted 1/5 in lysis buffer (0.75% NH4Cl, 0.2% Tris, pH 7.2) and counted in a Neubauer chamber.
# (§1) Results are presented as means ± SEM. The GraphPad Prism 5.0 software (GraphPad Software Inc., San Diego, CA, USA) was employed to carry out calculations. To calculate IC50 and CC50 values, the percentages of inhibition were plotted against the drug concentration and fitted with a straight line determined by a linear regression (Sigma Plot 10 software, (Systat Software, San Jose, CA, USA). Results presented are representative of three to four independent experiments.
# [2] = test system: T. cruzi amastigotes; experiment: Inhibition of T. cruzi amastigote replication in Vero cells (β-galactosidase transfected parasites, CPRG); assay type: cell-based, Trypanosoma cruzi; conditions: for IC50: infected Vero cells, 0-100 µg/mL, β-galactosidase/CPRG readout, read-out: IC50 against T. cruzi amastigotes (intracellular forms); for Selectivity Index Amastigotes T. cruzi: Vero CC50 relative to amastigote IC50
# Description: Figure 3 Inhibition of T. cruzi amastigotes replication by estafietin (1) and estafietin derivatives (2–5). Mammalian cells (5 × 10^3 cells/well) were seeded in 96-well plates and infected 24 h later with transfected trypomastigotes expressing β-galactosidase. After 24 h of co-culture, plates were washed and compounds were added at 0–100 µg/mL in 150 µL medium. On day 6 post-infection, the assays were developed by the addition of CPRG (100 mM) and Nonidet P-40 (1%). Plates were incubated for 6 h and the optical density was read at 570 nm. Infected untreated mammalian cells were used as 100% infection control. The percentage of inhibition was calculated as 100 − {[(Absorbance of treated infected cells)/(Absorbance of untreated infected cells)] × 100}. Symbols represent mean ± SEM. Each treatment was compared to controls: parasites incubated with culture medium only. * p < 0.05, ** p < 0.01 and *** p < 0.005. TEXT PRINTED IN THE PICTURE: Estafietin (1): IC50 (μg/mL): 28.8 | 11βH,13-dihydroestafietin (2): IC50 (μg/mL): 83.0 | α and β epoxyestafietin (3a and 3b): IC50 (μg/mL): 2.0 | 11βH,13-methoxyestafietin (4): IC50 (μg/mL): 30.5 | 11βH,13-cianoestafietin (5): IC50 (μg/mL): 99.0
# The effect of the compounds on intracellular forms of T. cruzi was assayed using β-galactosidase transfected parasites. Ninety-six well culture plates were seeded with nonphagocytic Vero cells at 5 × 10^3 per well in […] of culture medium and incubated for 24 h at 37 °C in a 5% CO2 atmosphere. Cells were then washed and infected with transfected bloodstream trypomastigotes expressing β-galactosidase at a parasite/cell ratio of 10:1. After […] of coculture, plates were washed twice with PBS to remove unbound parasites and each pure compound was added at different concentrations (0–100 µg/mL) in 150 µL of fresh complete RPMI medium without phenol red (Gibco, Rockville, MD, USA). Controls included infected untreated cells (100% infection control) and uninfected cells (0% infection control). The assay was developed by the addition of chlorophenolred-β-D-galactopyranoside (CPRG) (100 mM) and 1% Nonidet P40, 5 days later. Plates were incubated for 4–6 h at 37 °C and the absorbance was measured at 595 nm in a microplate reader (Bio-Rad Laboratories, Hercules, CA, USA). The percentage inhibition was calculated as 100 – {[(absorbance of treated infected cells)/(absorbance of untreated infected cells) × 100]} and the IC50 value was estimated. Benznidazole was used as positive control.
# as §1
# [3] = test system: L. braziliensis promastigotes; experiment: Leishmanicidal activity on L. braziliensis promastigotes ([3H] thymidine uptake assay); assay type: cell-based, Leishmania braziliensis; conditions: for IC50: Leishmania braziliensis, 72 h, 0-50 µg/mL, [3H] thymidine uptake; for Selectivity Index Promastigotes L. braziliensis: Vero CC50 relative to promastigote IC50
# Description: Figure 4 Leishmanicidal activity of estafietin (1) and estafietin derivatives (2–5) on L. braziliensis promastigotes. Parasites were cultured for 72 h in the presence of each compound (0–50 µg/mL). The inhibition of parasite growth was evaluated by a [^3H] thymidine uptake assay. The percentage of inhibition was calculated as 100 − [(cpm of treated parasites)/(cpm of untreated parasites)] × 100. Values represent mean ± SEM from three independent experiments carried out in triplicate. Each treatment was compared to controls: parasites incubated with culture medium only. * p < 0.05, ** p < 0.01 and *** p < 0.005. TEXT PRINTED IN THE PICTURE: Estafietin (1): IC50 (μg/mL): 1.0 | 11βH,13-dihydroestafietin (2): IC50 (μg/mL): 1.3 | α and β epoxyestafietin (3a and 3b): IC50 (μg/mL): 7.8 | 11βH,13-methoxyestafietin (4): IC50 (μg/mL): 48.7 | 11βH,13-cianoestafietin (5): IC50 (μg/mL): 51.8
# The growth inhibition of Leishmania braziliensis promastigotes was evaluated by the (^3H) thymidine [(^3H)T] uptake assay. Parasites (5 × 10^6) were settled at a final volume of 150 µL in a flat-bottom 96-well microplate and cultured at 28 °C in either the absence or the increasing concentrations of the pure compounds (0–50 µg/mL). After 72 h, 1 µC of [^3H]T was added to each well, and cultures were incubated for 16 h. Counts per minute (cpm) of triplicate cultures were measured by an automated liquid scintillation counter (Packard, Downers Grove, IL, USA). The percentage of inhibition was calculated as {100 − [(cpm of treated parasites/cpm of untreated parasites) × 100]}. The compound concentration at which the parasite growth was inhibited by 50% (IC50) was determined. Amphotericin B was used as positive control.
# as §1
# [4] = Host cell toxicity on Vero cells by the MTT method; assay type: cell-based; conditions: African green monkey, 24 h, 5-500 µg/mL, read-out: CC50 (50% cytotoxic concentration)
# Description: (§2) The cytotoxicity of the natural and synthetic compounds was evaluated on Vero cells by the MTT method. The 50% cytotoxic concentration (CC50) of each compound was determined. Selectivity indexes (SI) were calculated for T. cruzi trypomastigotes and amastigotes and for L. braziliensis promastigotes (Table 1).
# (§3) Vero cells were employed to determine the viability by the 3-(4,5-dimethylthiazol-2yl)-2,5-diphenyltetrazolium bromide (MTT) method. Cells (5 × 10^5) were settled at a final volume of […] in a flat-bottom 96-well microplate and cultured at 37 °C in a 5% CO2 atmosphere in either the absence or the presence of increasing concentrations of the compounds (5–500 µg/mL). After 24 h, MTT was added at a final concentration of 1.5 mg/mL. Plates were incubated for 2 h at 37 °C. The purple formazan crystals formed were dissolved with […] of ethanol and the absorbance was read at 570 nm in a microplate reader. Results were calculated as the ratio between the optical density in the presence and absence of the compound multiplied by 100.
# as §1
# [5] = test system: Vero cells; experiment: Host cell toxicity on Vero cells by the MTT method; assay type: cell-based
# Description: as §2, §3, §1
# [6] = test system: T. cruzi epimastigotes; design: method as in PMID 23815577; conditions: series of 15 STLs; cited from earlier work
SMILES,IC50 [1] [µg/mL],IC50 ([2]; Trypanosoma cruzi) [µg/mL],Selectivity Index Trypomastigotes T. cruzi [1],activity against the infective form of T. cruzi compared with estafietin (in words) [1],Selectivity Index Amastigotes T. cruzi [2],IC50 [3] [µg/mL],CC50 at 24 h [4] [µg/mL],toxicity on mammalian cells (in words) [5],activity on T. cruzi epimastigotes (in words) [6],Selectivity Index Promastigotes L. braziliensis [3],"inhibition at 5 µg/mL ([2]; Trypanosoma cruzi, Vero, at a concentration of 5.0 µg/mL, read-out: percentage of inhibition of T. cruzi amastigotes) [%]"
"O=C(Cn1ccnc1[N+](=O)[O-])NCc1ccccc1 [Benznidazole, reference compound]",11.6,1.8,–,–,–,–,–,–,–,–,–
"C=C1CCC2C(COC)C(=O)OC2C2C1CC1OC12C (stereo not shown) [Compound 4, 11βH,13-methoxyestafietin]",> 100,30.5,3.1,less active,10.3,48.7,316,low toxicity; also recorded: not toxic,–,–,–
"C[C@@H]1[C@H](O)[C@@H](C)/C=C/C=C/C=C/C=C/C=C/C=C/C=C/[C@H](O[C@@H]2O[C@H](C)[C@@H](O)[C@H](N)[C@@H]2O)C[C@@H]2O[C@](O)(C[C@@H](O)C[C@@H](O)[C@H](O)CC[C@@H](O)C[C@@H](O)CC(=O)O[C@H]1C)C[C@H](O)[C@H]2C(=O)O [Amphotericin B, reference compound]",–,–,–,–,–,0.48,–,–,–,–,–
"C=C1CC[C@H]2C(=C)C(=O)O[C@@H]2C2C1C[C@H]1O[C@@]21C (stereo partly shown) [Compound 1, estafietin]",25.2,28.8,9.5,–,8.3,1,240,low toxicity,significant activity,240.4,–
"C=C1C(=O)O[C@@H]2C3C(C[C@H]4O[C@@]34C)C3(CC[C@@H]12)CO3 (stereo partly shown) [Compound 3, epoxyestafietin]",18.7,2,0.4,–,4.0,7.8,8.1,–,–,1.0,> 75
"C=C1CCC2C(CC#N)C(=O)OC2C2C1CC1OC12C (stereo not shown) [Compound 5, 11βH,13-cianoestafietin]",78.1,99,1.7,inactive,1.3,51.8,134,low toxicity,–,2.7,–
"C=C1CCC2C(C)C(=O)OC2C2C1CC1OC12C (stereo not shown) [Compound 2, 11βH,13-dihydroestafietin]",97.1,83,1.7,less active,2.0,1.3,165,low toxicity,–,126.6,–
